Measurements reported in ChEMBL document CHEMBL1147910, “Novel C-5 aminomethyl pyrrolotriazine dual inhibitors of EGFR and HER2 protein tyrosine kinases” (Bioorg Med Chem Lett, 2007).

Assays:
[1] = molecular target: Epidermal growth factor receptor (Homo sapiens, UniProt P00533)
NCI-N87 [2] = test: Antiproliferative activity against human N87 cells; assay type: functional, cell-based
[3] = Drug level in BALB/c mouse plasma at 50 mg/kg, po after 4 hrs; assay type: ADME, organism-based; set-up: dose 50 mg/kg, route oral
HT-29 = test: Antiproliferative activity against human HT29 cells
[4] = molecular target: Receptor tyrosine-protein kinase erbB-2 (Homo sapiens, UniProt P04626); test: Inhibition of human HER2
[5] = Metabolic stability in mouse liver microsomes at 3 uM in presence of NADPH after 10 min; assay type: ADME, Microsome
NCI-N87 [6] = test: animal or person; details: Mus musculus, NCI-N87, po, 336 h, read-out: TGI
Description: Antitumor activity against human N87 cells xenografted in athymic mouse at 180 mg/kg, po twice daily after 14 days

[7] = Antitumor activity against human GEO cells xenografted in athymic mouse at 90 mg/kg, po twice daily after 14 days; details: 336 h, read-out: TGI
[8] = Tmax in BALB/c mouse at 90 mg/kg, po; assay type: ADME, organism-based; set-up: dose 90 mg/kg, route oral; details: in vivo
[9] = Cmax in BALB/c mouse at 90 mg/kg, po; assay type: ADME, organism-based; set-up: dose 90 mg/kg, route oral; details: in vivo
NCI-N87 [10] = test: animal or person; details: Mus musculus, NCI-N87, po, 336 h, read-out: TGI; remark: listed apart in the source
Description: (§1) Antitumor activity against human N87 cells xenografted in athymic mouse at 135 mg/kg, po twice daily after 14 days

[11] = Oral bioavailability in BALB/c mouse at 90 mg/kg, po; assay type: ADME, organism-based; details: in vivo
[12] = Volume of distribution at steady state in BALB/c mouse at 10 mg/kg, iv; assay type: ADME, organism-based; set-up: dose 10 mg/kg, route intravenous; details: in vivo, read-out: Vss
[13] = Half life in BALB/c mouse at 10 mg/kg, iv; assay type: ADME, organism-based; set-up: dose 10 mg/kg, route intravenous; details: in vivo
[14] = Mortality in human N87 cells xenografted athymic mouse at 180 mg/kg, po; assay type: organism-based, NCI-N87; set-up: dose 180 mg/kg, route oral; details: in vivo, read-out: Activity
Plasma = test: Fraction unbound ligand in BALB/c mouse plasma; assay type: ADME, cell-free
[15] = Mean residence time in BALB/c mouse at 10 mg/kg, iv; assay type: ADME, organism-based; set-up: dose 10 mg/kg, route intravenous; details: in vivo
[16] = Plasma clearance in BALB/c mouse at 10 mg/kg, iv; assay type: ADME, organism-based; set-up: dose 10 mg/kg, route intravenous
[17] = AUC in BALB/c mouse at 90 mg/kg, po; assay type: ADME, organism-based; set-up: dose 90 mg/kg, route oral; details: plasma
[18] = Aqueous solubility in phosphate buffer at pH 7.5; assay type: physicochemical
NCI-N87 [19] = test: animal or person; details: Mus musculus, NCI-N87, po, 336 h, read-out: TGI; remark: listed apart in the source
Description: as §1

[20] = Toxicity in human N87 cells xenografted athymic mouse; assay type: organism-based, NCI-N87; details: in vivo
NCI-N87 [21] = test: Antitumor activity against human N87 cells xenografted in athymic mouse at 90 mg/kg, po twice daily after 14 days; details: 336 h, read-out: TGI
[22] = Aqueous solubility at pH 3.9; assay type: physicochemical; details: buffer
A2780 = test: Antiproliferative activity against human A2780 cells; assay type: functional, cell-based

Sequence of Epidermal growth factor receptor (P00533 whole entry): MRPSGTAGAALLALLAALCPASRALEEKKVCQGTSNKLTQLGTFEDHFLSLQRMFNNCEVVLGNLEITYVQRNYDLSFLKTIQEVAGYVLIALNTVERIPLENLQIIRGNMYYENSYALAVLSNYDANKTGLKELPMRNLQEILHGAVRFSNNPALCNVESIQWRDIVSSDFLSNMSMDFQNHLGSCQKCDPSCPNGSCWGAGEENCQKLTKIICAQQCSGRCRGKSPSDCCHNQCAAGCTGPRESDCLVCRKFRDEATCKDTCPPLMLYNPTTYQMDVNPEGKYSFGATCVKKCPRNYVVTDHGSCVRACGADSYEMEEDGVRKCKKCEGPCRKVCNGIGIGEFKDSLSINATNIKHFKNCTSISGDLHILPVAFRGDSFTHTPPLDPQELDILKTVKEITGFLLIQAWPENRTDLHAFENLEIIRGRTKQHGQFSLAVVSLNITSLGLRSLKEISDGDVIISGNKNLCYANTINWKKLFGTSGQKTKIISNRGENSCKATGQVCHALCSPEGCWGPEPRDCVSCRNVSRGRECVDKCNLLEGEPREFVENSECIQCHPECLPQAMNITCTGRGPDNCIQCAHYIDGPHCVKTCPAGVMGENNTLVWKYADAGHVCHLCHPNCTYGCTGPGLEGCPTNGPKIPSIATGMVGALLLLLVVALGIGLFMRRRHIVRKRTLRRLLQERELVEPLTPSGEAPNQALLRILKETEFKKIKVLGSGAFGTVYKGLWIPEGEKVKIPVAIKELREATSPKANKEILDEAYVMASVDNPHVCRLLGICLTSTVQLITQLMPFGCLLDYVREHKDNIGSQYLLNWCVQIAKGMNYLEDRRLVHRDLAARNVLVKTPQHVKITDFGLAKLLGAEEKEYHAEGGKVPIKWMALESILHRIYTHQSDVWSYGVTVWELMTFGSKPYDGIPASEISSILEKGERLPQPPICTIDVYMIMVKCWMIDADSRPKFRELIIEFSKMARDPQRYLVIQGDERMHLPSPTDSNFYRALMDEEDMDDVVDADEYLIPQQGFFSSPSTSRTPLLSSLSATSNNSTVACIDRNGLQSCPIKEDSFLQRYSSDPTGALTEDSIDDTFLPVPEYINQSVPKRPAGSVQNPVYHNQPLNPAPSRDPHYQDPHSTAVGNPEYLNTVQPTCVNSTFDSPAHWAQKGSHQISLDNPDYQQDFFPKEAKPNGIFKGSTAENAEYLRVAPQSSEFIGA
Sequence of Receptor tyrosine-protein kinase erbB-2 (P04626 whole entry): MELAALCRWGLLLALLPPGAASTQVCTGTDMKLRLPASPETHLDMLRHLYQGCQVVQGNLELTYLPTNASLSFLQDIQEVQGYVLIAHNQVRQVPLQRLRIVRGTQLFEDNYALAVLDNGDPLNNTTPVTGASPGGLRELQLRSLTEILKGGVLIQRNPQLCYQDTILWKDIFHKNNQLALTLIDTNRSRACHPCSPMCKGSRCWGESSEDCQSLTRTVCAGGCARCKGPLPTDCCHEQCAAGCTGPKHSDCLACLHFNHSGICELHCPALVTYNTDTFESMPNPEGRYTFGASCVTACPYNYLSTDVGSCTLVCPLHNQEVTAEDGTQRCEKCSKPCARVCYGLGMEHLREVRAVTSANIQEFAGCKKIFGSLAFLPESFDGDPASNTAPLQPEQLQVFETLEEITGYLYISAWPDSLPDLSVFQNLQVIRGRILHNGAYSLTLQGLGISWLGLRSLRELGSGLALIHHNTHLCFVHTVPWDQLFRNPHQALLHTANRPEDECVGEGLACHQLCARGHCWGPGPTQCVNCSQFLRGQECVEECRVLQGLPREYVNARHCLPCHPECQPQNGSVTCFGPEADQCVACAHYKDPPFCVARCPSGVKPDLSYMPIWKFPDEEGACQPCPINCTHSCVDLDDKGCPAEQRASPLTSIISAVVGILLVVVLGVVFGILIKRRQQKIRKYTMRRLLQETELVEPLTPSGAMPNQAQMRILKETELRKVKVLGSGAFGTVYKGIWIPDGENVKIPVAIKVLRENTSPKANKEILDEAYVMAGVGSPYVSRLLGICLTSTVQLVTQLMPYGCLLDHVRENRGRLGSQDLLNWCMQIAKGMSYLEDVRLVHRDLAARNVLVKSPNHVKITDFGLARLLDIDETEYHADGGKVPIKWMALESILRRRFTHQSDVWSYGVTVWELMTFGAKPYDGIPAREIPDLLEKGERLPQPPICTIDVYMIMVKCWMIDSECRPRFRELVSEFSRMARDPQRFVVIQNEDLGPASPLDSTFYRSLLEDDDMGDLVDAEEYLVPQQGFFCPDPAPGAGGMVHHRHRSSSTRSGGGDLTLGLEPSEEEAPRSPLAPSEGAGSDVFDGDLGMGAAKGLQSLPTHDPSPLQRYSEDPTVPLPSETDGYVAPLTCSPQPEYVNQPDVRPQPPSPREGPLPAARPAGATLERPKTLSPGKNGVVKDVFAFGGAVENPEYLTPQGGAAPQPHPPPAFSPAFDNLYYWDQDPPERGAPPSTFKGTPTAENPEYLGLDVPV

| Compound | IC50 [1] | concentration at 4 h [3] | IC50 (HT-29) | IC50 [4] | metabolic rate [5] | IC50 (NCI-N87 [2]) | further results |
| --- | --- | --- | --- | --- | --- | --- | --- |
| COC(=O)C1CCN(Cc2ccn3ncnc(Nc4ccc5c(cnn5Cc5cccc(F)c5)c4)c23)CC1 | 1000 nM | 27 nM | > 10000 nM | > 1000 nM | – | > 5000 nM | – |
| CC(=O)N1CCN(Cc2ccn3ncnc(Nc4ccc5c(cnn5Cc5cccc(F)c5)c4)c23)CC1 | 710 nM | 4100 nM | – | 610 nM | – | – | – |
| O=C1CCN(Cc2ccn3ncnc(Nc4ccc5c(cnn5Cc5cccc(F)c5)c4)c23)CCN1 | 240 nM | 44 nM | > 10000 nM | 750 nM | 0.27 nmol/min/mg | 200 nM | – |
| O=C1CN(Cc2ccn3ncnc(Nc4ccc5c(cnn5Cc5cccc(F)c5)c4)c23)CCN1 | 350 nM | – | > 10000 nM | 200 nM | – | 520 nM | – |
| CN(CCO)Cc1ccn2ncnc(Nc3ccc4c(cnn4Cc4cccc(F)c4)c3)c12 | – | – | – | – | – | 1200 nM | – |
| Fc1cccc(Cn2ncc3cc(Nc4ncnn5ccc(CN6CCCC6)c45)ccc32)c1 | 500 nM | – | – | 360 nM | – | – | – |
| Fc1cccc(Cn2ncc3cc(Nc4ncnn5ccc(CN6CCCNCC6)c45)ccc32)c1 | 33 nM | 1300 nM | > 3600 nM | 27 nM | 0.05 nmol/min/mg | – | inhibition in vivo at 180 mg/kg (NCI-N87 [6]): 121%; inhibition in vivo at 90 mg/kg [7]: 90%; Tmax [8]: 3 h; Cmax [9]: 7950 nM; inhibition in vivo at 135 mg/kg (NCI-N87 [10]): 111%; bioavailability [11]: 77%; Vd [12]: 9.5 L/kg; half-life [13]: 3.7 h; mortality [14]: 12%; PB (Plasma): 98.4%; MRT [15]: 4 h; clearance [16]: 39 mL/min/kg; AUC [17]: 48.9 µM·h; Solubility [18]: 0.012 mg/kg; inhibition in vivo at 135 mg/kg (NCI-N87 [19]): 78%; MTD [20]: 180 mg/kg; inhibition in vivo at 90 mg/kg (NCI-N87 [21]): 97%; Solubility [22]: 9.7 mg/kg |
| COC1CNCCN(Cc2ccn3ncnc(Nc4ccc5c(cnn5Cc5cccc(F)c5)c4)c23)C1 (configuration not stated) | 190 nM | – | – | 170 nM | – | 3700 nM | IC50 (A2780): > 5000 nM |
| NC(=O)C1CCN(Cc2ccn3ncnc(Nc4ccc5c(cnn5Cc5cccc(F)c5)c4)c23)CC1 | 140 nM | – | – | 310 nM | – | 400 nM | – |
| CS(=O)(=O)N1CCCN(Cc2ccn3ncnc(Nc4ccc5c(cnn5Cc5cccc(F)c5)c4)c23)CC1 | 210 nM | – | > 10000 nM | 120 nM | – | 330 nM | – |
| Cc1ccn2ncnc(Nc3ccc4c(cnn4Cc4cccc(F)c4)c3)c12 | – | 4100 nM | > 10000 nM | – | 0.14 nmol/min/mg | – | – |

More lines, main results first:

| IC50 [1] | concentration at 4 h [3] | IC50 (HT-29) | IC50 [4] | metabolic rate [5] | Compound | IC50 (NCI-N87 [2]) | further results |
| --- | --- | --- | --- | --- | --- | --- | --- |
| 90 nM | 6300 nM | – | 81 nM | 0 nmol/min/mg | Fc1cccc(Cn2ncc3cc(Nc4ncnn5ccc(CN6CCNCC6)c45)ccc32)c1 | 730 nM | – |
| 170 nM | 480 nM | – | 120 nM | – | CN1CCN(Cc2ccn3ncnc(Nc4ccc5c(cnn5Cc5cccc(F)c5)c4)c23)CC1 | 490 nM | – |
| 26 nM | 1510 nM | > 10000 nM | 16 nM | 0.12 nmol/min/mg | O[C@H]1CNCCN(Cc2ccn3ncnc(Nc4ccc5c(cnn5Cc5cccc(F)c5)c4)c23)C1 | 160 nM | – |
| 130 nM | 93 nM | > 7900 nM | 120 nM | 0.21 nmol/min/mg | CN1CCCN(Cc2ccn3ncnc(Nc4ccc5c(cnn5Cc5cccc(F)c5)c4)c23)CC1 | 620 nM | – |
| 780 nM | – | > 10000 nM | 39 nM | – | O=C1CNCCN(Cc2ccn3ncnc(Nc4ccc5c(cnn5Cc5cccc(F)c5)c4)c23)C1 | 650 nM | – |
| – | 600 nM | > 10000 nM | 110 nM | 0.23 nmol/min/mg | O=C(O)C1CCN(Cc2ccn3ncnc(Nc4ccc5c(cnn5Cc5cccc(F)c5)c4)c23)CC1 | > 5000 nM | – |
| 45 nM | – | – | 47 nM | – | OCCNCc1ccn2ncnc(Nc3ccc4c(cnn4Cc4cccc(F)c4)c3)c12 | 1950 nM | – |
| 200 nM | 880 nM | > 10000 nM | 76 nM | 0.12 nmol/min/mg | O[C@@H]1CNCCN(Cc2ccn3ncnc(Nc4ccc5c(cnn5Cc5cccc(F)c5)c4)c23)C1 | 950 nM | – |
| 130 nM | – | – | 74 nM | 0 nmol/min/mg | CC1CNCCN(Cc2ccn3ncnc(Nc4ccc5c(cnn5Cc5cccc(F)c5)c4)c23)C1 (configuration not stated) | 680 nM | IC50 (A2780): > 2100 nM |
| 68 nM | 250 nM | – | 63 nM | 0.29 nmol/min/mg | OC1CCN(Cc2ccn3ncnc(Nc4ccc5c(cnn5Cc5cccc(F)c5)c4)c23)CC1 | 140 nM | – |
